In US8017654B2, “Combination cancer therapy with bis(thiohydrazide) amide compounds” (priority 2005, dated 2011):

How the values were obtained:
[1] = Phase I trial, pharmacokinetics in plasma by LC/MS during cycle 1
Description: Pharmacokinetic (PK) studies were performed during cycle 1 using liquid chromatography/mass spectrometry (LC/MS) to measure both compounds in plasma. Heat shock protein 70 (Hsp70) was measured in plasma before and after treatment.

[2] = co-administered with Compound (1) 44-525 mg/m2

SMILES	PK linearity ([1]; Compound (1) 44-525 mg/m2, unaffected by paclitaxel dose)	serious effects specifically attributable to Compound (1) (35 patients, 8 dose levels, with paclitaxel)	Paclitaxel clearance, trend with Compound (1) dose [1, 2]	Paclitaxel terminal phase half-life, effect of Compound (1) dose [1, 2]	Paclitaxel dose limiting toxicities (in vivo)
CN(NC(=O)CC(=O)NN(C)C(=S)c1ccccc1)C(=S)c1ccccc1 [Compound (1)]	linear PK	No serious effects			
CC(=O)O[C@H]1C(=O)[C@@]2(C)[C@H]([C@H](OC(=O)c3ccccc3)[C@]3(O)C[C@H](OC(=O)[C@H](O)[C@@H](NC(=O)c4ccccc4)c4ccccc4)C(C)=C1C3(C)C)[C@]1(OC(C)=O)CO[C@@H]1C[C@@H]2O [Paclitaxel, paclitaxel]			significant trend toward decreasing clearance	without affecting the terminal phase half-life	occurred in a single patient in each of the top three dose levels
